Among the data in patent publication US9518060B2, “Substituted pyrrolo[3,4-c]pyrazoles as PKC kinase inhibitors” (PFIZER INC., priority 2007, dated 2016) are Ki values, retold here.

pKi: −log10 of the molar value.

The term pKi denotes the Ki on a negative log10 scale, so that one unit is a factor of ten.

The experiment deals with Protein Kinase C beta 2 (PKCβII) (Homo sapiens (Human), UniProt P05771). As to the kind of experiment: PKCβII coupled spectrophotometric kinase assay (PK/LDH, NADH absorbance at 340 nm). To be noted: apparent Ki, ATP competitive inhibition model (Morrison equation); 0.1 mM ATP, 5 nM PKC, 30° C.; read-out: Ki app. In kind it is biochemical. A digest of the protocol: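 PK/LDH-coupled ADP detection (NADH loss at 340 nm), 20 min at 30° C, pH 7.4; 5 nM PKCβII, 0.15 mM pseudosubstrate peptide, 0.1 mM ATP, with CaCl2, PS and PMA activators, 7.5% DMSO. Apparent Ki from initial velocities fitted to ATP-competitive Morrison model over 10,000–0.169 nM inhibitor.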
Chain of Protein Kinase C beta 2 (PKCβII) (P05771 other isoform, or with tags, fused parts or gaps): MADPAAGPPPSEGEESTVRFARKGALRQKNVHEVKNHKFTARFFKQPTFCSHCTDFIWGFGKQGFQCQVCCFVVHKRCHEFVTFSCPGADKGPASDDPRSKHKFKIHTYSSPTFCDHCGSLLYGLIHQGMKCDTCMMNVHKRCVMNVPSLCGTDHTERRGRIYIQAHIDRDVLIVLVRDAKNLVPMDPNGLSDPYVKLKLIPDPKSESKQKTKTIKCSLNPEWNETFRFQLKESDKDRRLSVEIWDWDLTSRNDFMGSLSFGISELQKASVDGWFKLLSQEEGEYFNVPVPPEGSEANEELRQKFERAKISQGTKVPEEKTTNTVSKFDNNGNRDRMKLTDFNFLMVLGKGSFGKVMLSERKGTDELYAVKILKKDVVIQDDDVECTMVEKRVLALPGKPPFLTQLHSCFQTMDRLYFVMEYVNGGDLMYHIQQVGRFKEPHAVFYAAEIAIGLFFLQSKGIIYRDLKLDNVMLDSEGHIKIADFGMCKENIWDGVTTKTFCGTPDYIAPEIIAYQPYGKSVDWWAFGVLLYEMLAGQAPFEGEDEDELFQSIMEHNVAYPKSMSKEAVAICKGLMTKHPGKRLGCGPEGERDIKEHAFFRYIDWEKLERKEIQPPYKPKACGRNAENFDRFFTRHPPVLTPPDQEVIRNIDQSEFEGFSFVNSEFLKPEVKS
Consider `Cc1ccc(F)c(Nc2n[nH]c3c2CN(C(=O)C2(F)CCN(C)CC2)C3(C)C)n1` [Example J1, 5-[(4-fluoro-1-methylpiperidin-4-yl)carbonyl]-N-(3-fluoro-6-methylpyridin-2-yl)-6,6-dimethyl-1,4,5,6-tetrahydropyrrolo[3,4-c]pyrazol-3-amine], for which the negative logarithm of the Ki (pKi) is 7.67. Consider `C[C@H]1CN(C)C(C)(C)CN1C(=O)N1Cc2c(Nc3ccnc(N(C)C)n3)n[nH]c2C1(C)C` [Example A9, N^4-(6,6-dimethyl-5-{[(2S)-2,4,5,5-tetramethylpiperazin-1-yl]carbonyl}-1,4,5,6-tetrahydropyrrolo[3,4-c]pyrazol-3-yl)-N^2,N^2-dimethylpyrimidine-2,4-diamine], for which the pKi was 8.01. Under `CNc1ncc(F)c(Nc2n[nH]c3c2CN(C(=O)N2CC(C)(C)N(C)C[C@@H]2C)C3(C)C)n1` [Example A6, N^4-(6,6-dimethyl-5-{[(2S)-2,4,5,5-tetramethylpiperazin-1-yl]carbonyl}-1,4,5,6-, tetrahydropyrrolo[3,4-c]pyrazol-3-yl)-5-fluoro-N^2-methylpyrimidine-2,4-diamine] stands 7.97; under `CCOc1ccnc(Nc2n[nH]c3c2CN(C(=O)N2C[C@@H](C)N(C)C[C@@H]2C)C3(C)C)n1` [Example M1, N-(4-ethoxypyrimidin-2-yl)-6,6-dimethyl-5-{[(2S,5R)-2,4,5-trimethylpiperazin-1-yl]carbonyl}-1,4,5,6-tetrahydropyrrolo[3,4-c]pyrazol-3-amine], 8.37; under `CCOc1ncc(F)c(Nc2n[nH]c3c2CN(C(=O)N2C[C@@H](C)N(C)C[C@@H]2C)C3(C)C)n1` [Example K1, N-(2-ethoxy-5-fluoropyrimidin-4-yl)-6,6-dimethyl-5-{[(2S,5R)-2,4,5-trimethylpiperazin-1-yl]carbonyl}-1,4,5,6-tetrahydropyrrolo[3,4-c]pyrazol-3-amine], 8.95.
